In patent publication US9242970B2 (ACTELION PHARMACEUTICALS LTD., priority 2010, dated 2016):
Like-named read-outs stand apart in the source and are kept apart here.

How the values were obtained:
human orexin-1 receptor = human orexin-1 receptor (Homo sapiens (Human), UniProt O43613); assay: In vitro assay: intracellular calcium measurements (FLIPR), antagonistic activity; format: cell-based; conditions: CHO cells, 3 nM orexin-A, marked values are geometric means of n = 2-6, read-out: IC50 OX1
Procedure: (§1) In Vitro Assay: Intracellular Calcium Measurements:
(§2) Chinese hamster ovary (CHO) cells expressing the human orexin-1 receptor and the human orexin-2 receptor, respectively, are grown in culture medium (Ham F-12 with L-Glutamine) containing 300 µg/ml G418, 100 U/ml penicillin, 100 µg/ml streptomycin and 10% heat inactivated fetal calf serum (FCS). The cells are seeded at 20,000 cells/well into 384-well black clear bottom sterile plates (Greiner). The seeded plates are incubated overnight at 37° C. in 5% CO2.
(§3) Fluorescence is measured for each well at 1 second intervals, and the height of each fluorescence peak is compared to the height of the fluorescence peak induced by 3 nM orexin-A with vehicle in place of antagonist. […] Optimized conditions were achieved by adjustment of pipetting speed and cell splitting regime. The calculated IC50 values may fluctuate depending on the daily cellular assay performance. Fluctuations of this kind are known to those skilled in the art.

human orexin-2 receptor = human orexin-2 receptor (Homo sapiens (Human), UniProt O43614); assay: as above; format: cell-based; conditions: read-out: IC50 OX2
Procedure: as §1, §2, §3

[1] = compound incubation time of 10 min
[2] = CHO cells, 3 nM orexin-A, compound incubation time of 10 min, marked values are geometric means of n = 2-6
[3] = CHO cells, 3 nM orexin-A, compound incubation 120 min, marked values are geometric means of n = 2-6

human orexin-1 receptor, sequence (O43613 whole entry): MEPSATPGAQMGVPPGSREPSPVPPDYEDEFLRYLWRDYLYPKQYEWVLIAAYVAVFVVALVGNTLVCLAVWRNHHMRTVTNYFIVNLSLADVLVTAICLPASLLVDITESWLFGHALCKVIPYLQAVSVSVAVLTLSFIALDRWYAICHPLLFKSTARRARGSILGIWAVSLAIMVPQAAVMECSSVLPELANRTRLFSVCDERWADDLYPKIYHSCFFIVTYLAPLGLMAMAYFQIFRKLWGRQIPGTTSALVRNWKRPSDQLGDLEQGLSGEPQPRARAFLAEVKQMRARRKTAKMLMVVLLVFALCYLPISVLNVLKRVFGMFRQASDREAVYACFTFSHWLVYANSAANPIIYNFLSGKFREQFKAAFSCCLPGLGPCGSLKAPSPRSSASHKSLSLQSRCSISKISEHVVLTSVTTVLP
human orexin-2 receptor, sequence (O43614 whole entry): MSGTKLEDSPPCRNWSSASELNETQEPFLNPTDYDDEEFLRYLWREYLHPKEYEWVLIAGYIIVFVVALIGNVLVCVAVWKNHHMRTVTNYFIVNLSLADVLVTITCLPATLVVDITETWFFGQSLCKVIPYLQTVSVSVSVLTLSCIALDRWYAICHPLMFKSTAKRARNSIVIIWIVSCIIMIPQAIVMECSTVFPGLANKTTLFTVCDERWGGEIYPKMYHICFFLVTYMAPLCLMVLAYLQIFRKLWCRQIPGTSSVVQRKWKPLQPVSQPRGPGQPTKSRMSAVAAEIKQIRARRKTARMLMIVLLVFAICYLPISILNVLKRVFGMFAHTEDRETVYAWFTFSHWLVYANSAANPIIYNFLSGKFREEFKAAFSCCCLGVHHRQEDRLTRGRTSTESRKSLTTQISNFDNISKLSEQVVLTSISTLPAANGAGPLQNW

| SMILES | IC50 (human orexin-1 receptor; compound incubation 120 min) [nM] | IC50 (human orexin-2 receptor; [3]) [nM] | also measured |
| --- | --- | --- | --- |
| COc1cccc(OC)c1[C@@H]1C[C@H](OC)C(=O)N1Cc1ccc(OC(F)(F)F)cc1 (racemic) [Example 254, rac-(3S*,5S*)-5-(2,6-dimethoxyphenyl)-3-methoxy-1-(4-(trifluoromethoxy)benzyl)pyrrolidin-2-one] | – | – | IC50 (human orexin-1 receptor; [1]): 191 nM; IC50 (human orexin-2 receptor; [2]): 168 nM |
| COc1cccc(OC)c1[C@@H]1C[C@@H](Cl)C(=O)N1Cc1ccc(OC(F)(F)F)cc1 (racemic) [Example 257, rac-(3R*,5S*)-3-chloro-5-(2,6-dimethoxyphenyl)-1-(4-(trifluoromethoxy)benzyl)pyrrolidin-2-one] | – | – | IC50 (human orexin-1 receptor; [1]): 177 nM; IC50 (human orexin-2 receptor; [2]): 563 nM |
| COc1cccc(OC)c1[C@@H]1C[C@H](Cl)C(=O)N1Cc1ccc(OC(F)(F)F)cc1 (racemic) [Example 261, rac-(3S*,5S*)-3-chloro-5-(2,6-dimethoxyphenyl)-1-(4-(trifluoromethoxy)benzyl)pyrrolidin-2-one] | – | – | IC50 (human orexin-1 receptor; [1]): 65 nM; IC50 (human orexin-2 receptor; [2]): 41 nM |
| COc1cccc(OC)c1[C@@H]1C[C@@H](OC)C(=O)N1Cc1ccc(OC(F)(F)F)cc1 (racemic) [Example 262, rac-(3R*,5S*)-5-(2,6-dimethoxyphenyl)-3-methoxy-1-(4-(trifluoromethoxy)benzyl)pyrrolidin-2-one] | – | – | IC50 (human orexin-1 receptor; [1]): 3380 nM; IC50 (human orexin-2 receptor; [2]): 6940 nM |
| CC[C@H]1C[C@@H](c2c(OC)cccc2OC)N(Cc2ccc(OC(F)(F)F)cc2)C1=O (racemic) [Example 263, rac-(3S*,5S*)-5-(2,6-dimethoxyphenyl)-3-ethyl-1-(4-(trifluoromethoxy)benzyl)pyrrolidin-2-one] | – | – | IC50 (human orexin-1 receptor; [1]): 619 nM; IC50 (human orexin-2 receptor; [2]): 3610 nM |
| O=C1[C@H](O)C[C@@H](c2cccc3c2OCCO3)N1Cc1ccc(OC(F)(F)F)cc1 (racemic) [Example 295, rac-(3R*,5S*)-5-(2,3-dihydrobenzo[b][1,4]dioxin-5-yl)-3-hydroxy-1-(4-(trifluoromethoxy)benzyl)pyrrolidin-2-one] | 3970 | 5010 | – |
| COc1ccccc1[C@@H]1C[C@H](F)C(=O)N1Cc1ccc(OC(F)(F)F)cc1 (racemic) [Example 297, rac-(3S*,5S*)-3-fluoro-5-(2-methoxyphenyl)-1-(4-(trifluoromethoxy)benzyl)pyrrolidin-2-one] | 1050 | 568 | – |
| COc1ccccc1[C@@H]1C[C@H](Cl)C(=O)N1Cc1ccc(OC(F)(F)F)cc1 (racemic) [Example 298, rac-(3S*,5S*)-3-chloro-5-(2-methoxyphenyl)-1-(4-(trifluoromethoxy)benzyl)pyrrolidin-2-one] | 1630 | 901 | – |
| CCOc1ccccc1[C@@H]1C[C@@H](O)C(=O)N1Cc1ccc(OC(F)(F)F)cc1 (racemic) [Example 299, rac-(3R*,5S*)-5-(2-ethoxyphenyl)-3-hydroxy-1-(4-(trifluoromethoxy)benzyl)pyrrolidin-2-one] | 1860 | 170 | – |
| COc1cccc(F)c1[C@@H]1C[C@H](F)C(=O)N1Cc1ccc(OC(F)(F)F)cc1 (racemic) [Example 301, rac-(3S*,5S*)-3-fluoro-5-(2-fluoro-6-methoxyphenyl)-1-(4-(trifluoromethoxy)benzyl)pyrrolidin-2-one] | 1700 | 66 | – |
| COc1cccc(Cl)c1[C@@H]1C[C@H](F)C(=O)N1Cc1ccc(OC(F)(F)F)cc1 (racemic) [Example 302, rac-(3S*,5S*)-5-(2-chloro-6-methoxyphenyl)-3-fluoro-1-(4-(trifluoromethoxy)benzyl)pyrrolidin-2-one] | 1380 | 103 | – |
| CCOc1ccccc1[C@@H]1C[C@H](Cl)C(=O)N1Cc1ccc(OC(F)(F)F)cc1 (racemic) [Example 304, rac-(3S*,5S*)-3-chloro-5-(2-ethoxyphenyl-1-(4-(trifluoromethoxy)benzyl)pyrrolidin-2-one] | 615 | 129 | – |
| COc1cccc(F)c1[C@@H]1C[C@H](Cl)C(=O)N1Cc1ccc(OC(F)(F)F)cc1 (racemic) [Example 305, rac-(3S*,5S*)-3-chloro-5-(2-fluoro-6-methoxyphenyl)-1-(4-(trifluoromethoxy)benzyl)pyrrolidin-2-one] | 396 | 96 | – |
| COc1cccc(Cl)c1[C@@H]1C[C@H](Cl)C(=O)N1Cc1ccc(OC(F)(F)F)cc1 (racemic) [Example 306, rac-(3S*,5S*)-3-chloro-5-(2-chloro-6-methoxyphenyl)-1-(4-(trifluoromethoxy)benzyl)pyrrolidin-2-one] | 740 | 108 | – |
| COc1cccc(C)c1[C@@H]1C[C@@H](O)C(=O)N1Cc1ccc(OC(F)(F)F)cc1 (racemic) [Example 309, rac-(3R*,5S*)-3-hydroxy-5-(2-methoxy-6-methylphenyl)-1-(4-(trifluoromethoxy)benzyl)pyrrolidin-2-one] | 2220 | 887 | – |
| COc1ccc(F)c(OC)c1[C@@H]1C[C@@H](O)C(=O)N1Cc1ccc(OC(F)(F)F)cc1 (racemic) [Example 311, rac-(3R*,5S*)-5-(3-fluoro-2,6-dimethoxyphenyl)-3-hydroxy-1-(4-(trifluoromethoxy)benzyl)pyrrolidin-2-one] | – | 742 | – |
| COc1ccc2ccccc2c1[C@@H]1C[C@@H](O)C(=O)N1Cc1ccc(OC(F)(F)F)cc1 (racemic) [Example 312, rac-(3R*,5S*)-3-hydroxy-5-(2-methoxynaphthalen-1-yl)-1-(4-(trifluoromethoxy)benzyl)pyrrolidin-2-one] | 2200 | 826 | – |
| COc1c(F)ccc(F)c1[C@@H]1C[C@@H](O)C(=O)N1Cc1ccc(OC(F)(F)F)cc1 (racemic) [Example 313, rac-(3R*,5S*)-5-(3,6-difluoro-2-methoxyphenyl)-3-hydroxy-1-(4-(trifluoromethoxy)benzyl)pyrrolidin-2-one] | 1460 | 1030 | – |
| COc1ccc(Cl)c(OC)c1[C@@H]1C[C@@H](O)C(=O)N1Cc1ccc(OC(F)(F)F)cc1 (racemic) [Example 314, rac-(3R*,5S*)-5-(3-chloro-2,6-dimethoxyphenyl)-3-hydroxy-1-(4-(trifluoromethoxy)benzyl)pyrrolidin-2-one] | 1100 | 920 | – |
| COc1c(F)ccc(F)c1[C@@H]1C[C@H](F)C(=O)N1Cc1ccc(OC(F)(F)F)cc1 (racemic) [Example 321, rac-(3S*,5S*)-5-(3,6-difluoro-2-methoxyphenyl)-3-fluoro-1-(4-(trifluoromethoxy)benzyl)pyrrolidin-2-one] | – | 405 | – |
| CCOc1ccc(F)c(F)c1[C@@H]1C[C@@H](O)C(=O)N1Cc1ccc(OC(F)(F)F)cc1 (racemic) [Example 338, rac-(3R*,5S*)-5-(6-ethoxy-2,3-difluorophenyl)-3-hydroxy-1-(4-(trifluoromethoxy)benzyl)pyrrolidin-2-one] | – | 58 | – |
| CC(C)Oc1cccc(F)c1[C@@H]1C[C@@H](O)C(=O)N1Cc1ccc(OC(F)(F)F)cc1 (racemic) [Example 394, rac-(3R*,5S*)-5-(2-fluoro-6-isopropoxyphenyl)-3-hydroxy-1-(4-(trifluoromethoxy)benzyl)pyrrolidin-2-one] | – | 77 | – |
| COc1cccc(F)c1[C@@H]1C[C@@H](Cl)C(=O)N1Cc1ccc2oc3ccccc3c2c1 (racemic) [Example 396, rac-(3R*,5S*)-3-chloro-1-(dibenzo[b,d]furan-2-ylmethyl)-5-(2-fluoro-6-methoxyphenyl)pyrrolidin-2-one] | – | 29 | – |
| COc1cccc(F)c1[C@@H]1C[C@H](Cl)C(=O)N1Cc1ccc2oc3ccccc3c2c1 (racemic) [Example 408, rac-(3S*,5S*)-3-chloro-1-(dibenzo[b,d]furan-2-ylmethyl)-5-(2-fluoro-6-methoxyphenyl)pyrrolidin-2-one] | – | 5 | – |
| COc1cccc(F)c1C1CCCC(=O)N1Cc1ccc(OC(F)(F)F)cc1 (stereo not drawn) [Example 220, 6-(2-fluoro-6-methoxyphenyl)-1-(4-(trifluoromethoxy)benzyl)piperidin-2-one] | – | – | IC50 (human orexin-2 receptor; [2]): 156 nM |
| CCOc1cccc(F)c1C1CC(C)C(=O)N1Cc1ccc(OC(F)(F)F)cc1 (stereo not drawn) [Example 370, 5-(2-ethoxy-6-fluorophenyl)-3-methyl-1-(4-(trifluoromethoxy)benzyl)pyrrolidin-2-one] | – | 30 | – |
| CCOc1cccc(F)c1C1CC(C)C(=O)N1Cc1ccc(OC(F)F)cc1 (stereo not drawn) [Example 373, 1-(4-(difluoromethoxy)benzyl)-5-(2-ethoxy-6-fluorophenyl)-3-methylpyrrolidin-2-one] | – | 65 | – |
| CCOc1cccc(CN2C(=O)C(C)CC2c2c(F)cccc2OCC)c1 (stereo not drawn) [Example 376, 5-(2-ethoxy-6-fluorophenyl)-1-(3-ethoxybenzyl)-3-methylpyrrolidin-2-one] | – | 25 | – |
| CCCOc1ccc(CN2C(=O)C(C)CC2c2c(F)cccc2OCC)cc1 (stereo not drawn) [Example 377, 5-(2-ethoxy-6-fluorophenyl)-3-methyl-1-(4-propoxybenzyl)pyrrolidin-2-one] | – | – | IC50 (human orexin-2 receptor): 95 nM |
| CCCOc1cccc(F)c1C1CC(C)C(=O)N1Cc1ccc(OC(F)(F)F)cc1 (stereo not drawn) [Example 415, 5-(2-fluoro-6-propoxyphenyl)-3-methyl-1-(4-(trifluoromethoxy)benzyl)pyrrolidin-2-one] | – | 291 | – |
